From ChEMBL document CHEMBL1144991, “Autoradiographic visualization of corticotropin releasing hormone type 1 receptors with a nonpeptide ligand: synthesis of [(76)Br]MJL-1-109-2” (J Med Chem, 2003)
pKi: −log10 of the molar value.

Biological target: T1, Corticotropin-releasing factor receptor 1 (Rattus norvegicus, UniProt P35353)
T1 sequence (P35353 whole entry): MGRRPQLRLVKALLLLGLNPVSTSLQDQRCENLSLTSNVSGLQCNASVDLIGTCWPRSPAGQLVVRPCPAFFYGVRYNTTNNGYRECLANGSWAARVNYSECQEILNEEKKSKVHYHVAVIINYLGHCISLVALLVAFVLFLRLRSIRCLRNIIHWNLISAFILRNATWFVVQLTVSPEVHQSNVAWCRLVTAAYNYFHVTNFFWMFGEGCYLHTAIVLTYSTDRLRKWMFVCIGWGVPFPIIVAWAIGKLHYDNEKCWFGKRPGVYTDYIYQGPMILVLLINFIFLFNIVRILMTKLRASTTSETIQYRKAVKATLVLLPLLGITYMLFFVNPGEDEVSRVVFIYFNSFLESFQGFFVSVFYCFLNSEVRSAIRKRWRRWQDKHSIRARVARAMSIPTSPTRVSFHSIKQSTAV
Assay: Affinity for the Corticotropin releasing factor receptor 1 (CRHR1) was determined in rat brain
Format: tissue-based

| pKi | SMILES |
| --- | --- |
| 8.72 | COCCN(CCOC)c1nc(C)nc2c(-c3ccc(Br)cc3Cl)c(C)nn12 |
| 9.00 | CCCCN(CC)c1nc(C)nc2c1c(C)c(C)n2-c1c(C)cc(C)cc1C [ANTALARMIN] |
